For two compounds, Km results are on record in PMC6011838, “Transcriptome analysis and anaerobic C4‐dicarboxylate transport in Actinobacillus succinogenes” (MicrobiologyOpen, 2017).

In general, Km refers to the concentration of substrate that gives half-maximal velocity.

This test has as its target T1, Asuc_1999 (Actinobacillus succinogenes, UniProt A6VQU8).
T1 construct: untagged gene in pBAD30 derivative pMB64, expressed in E. coli IMW529 (deficient in anaerobic fumarate transport); 555 amino acids; cell suspension uptake
In words: […] uptake, filtration assay, E. coli cell suspension. The test is classed as cell-based. The following applies: anaerobic; phosphate buffer pH 7, 1 mmol/L MgSO4; 37°C; 1 min uptake; 20 mmol/L lactose preincubation; labelled compound.

Consider `O=C(O)/C=C/C(=O)O` [fumarate], for which the Km worked out at 452 µM.
For `O=C(O)CCC(=O)O` [succinate], the Michaelis-Menten constant (Km) worked out at 364 µM.
